From ChEMBL document CHEMBL4043210, “Synthesis of amide isosteres of schweinfurthin-based stilbenes” (2017)

test: Growth inhibition of human NCI60 cells by sulforhodamine B assay; assay type: functional

Row | Compound | GI50
1 | COc1cc(NC(=O)c2cc(OC)c3ccn(C)c3c2)cc2c1O[C@]1(C)CC[C@@H](O)C(C)(C)[C@H]1C2 | 6.6 µM
2 | COc1cc(NC(=O)c2cc(O)c(C/C=C(\C)CCC=C(C)C)c(O)c2)cc2c1O[C@]1(C)CC[C@@H](O)C(C)(C)[C@H]1C2 | 1.1 µM
3 | COc1cc(C(=O)Nc2cc(OC)c3ccn(C)c3c2)cc2c1O[C@]1(C)CC[C@@H](O)C(C)(C)[C@H]1C2 | 0.66 µM
4 | COc1cc(C(=O)Nc2cc(O)c(C/C=C(\C)CCC=C(C)C)c(O)c2)cc2c1O[C@]1(C)CC[C@@H](O)C(C)(C)[C@H]1C2 | 0.21 µM
5 | COc1cc(/C=C/c2cc(O)c(C/C=C(\C)CCC=C(C)C)c(O)c2)cc2c1O[C@]1(C)CC[C@@H](O)C(C)(C)[C@H]1C2 [3-DEOXYSCHWEINFURTHIN B] | 0.87 µM
6 | CC(C)=CCC/C(C)=C/Cc1c(O)cc(/C=C/c2cc(O)c3c(c2)C[C@@H]2C(C)(C)[C@H](O)[C@H](O)C[C@@]2(C)O3)cc1O [SCHWEINFURTHIN A] | 0.36 µM
